From patent US20250221981A1, “MAT2A INHIBITOR AND/OR TSG101 INHIBITOR FOR USE IN ANTIVIRAL THERAPY” (CAMBRIDGE ENTERPRISE LIMITED, priority 2022, published 2025)

Experiments:
[1] = system: Herpes Simplex Virus-1 (HSV-1); experiment: HSV-1 titre by plaque assay (HaCaT cells infected, titrated on VERO cells); assay type: cell-based; conditions: 20 μM, MOI 10, 16 hrs
Procedure: (§1) FIG. 9: Inhibition of MAT2A with PF-9366 reduces Herpes Simplex Virus-1 (HSV-1) virion assembly Immortalised keratinocyte (HaCaT) cells were plated and treated with 20 μM PF-9366 or DMSO control. After 3 hrs cells were infected with HSV-1 (MOI 10). After 16 hrs cells were harvested by scraping and either pelleted for western blot or freeze/thawed for titration. To titre: VERO cells were plated and the following day infected with 10-fold dilutions, at 1 hpi cells were overlayed with CMC/media. At 48 hpi cells were fixed and stained with toluidine blue. To western blot: Pellets were lysed and run on SDS-PAGE gel. Proteins were transferred overnight to nitrocellulose membranes. Membranes were probed for HSV-1 ICP0 and VP16 proteins and Tubulin as a control.
(§2) For HSV-1 infections HaCaT cells were infected with HSV-1 at a multiplicity of infection (MOI) of 10 diluted in appropriate medium. At 1 hour post infection (hpi) medium was removed, cells were washed twice with phosphate-buffered saline (PBS), and fresh medium was added with or without inhibitors. At 16 hpi cells were either harvested for western blot or virus titre by plaque assay.
For HSV-1, confluent VERO cell monolayers were infected with 10-fold dilutions of samples. […] Cells were fixed at 48 hpi and stained with toluidine blue, allowing plaques to be counted. […]

[2] = system: Sindbis virus (SINV); experiment: SINV titre by plaque assay (BHK-21 cells infected, titrated on BSR cells); assay type: cell-based; conditions: 2 μM, MOI >10, 24 hrs, initial tests
Procedure: (§3) (A) SINV and SFV4: BHK-21 cells were plated. The following day 2 μM PF-9366 or DMSO control was added to media. After 3 hrs cells were infected with SINV or SFV4 (MOI >10). After 24 hrs cells were harvested by scraping. Cells were either pelleted for western blot or freeze/thawed for titration. To titre: BSR cells were plated and the following day infected with 10-fold dilutions, at 1 hpi cells were overlayed with LMA in 2×MEM (+5% FCS). At 72 hpi cells were fixed and stained with toluidine blue.
(§4) For Alphavirus infections BHK-21 cells were infected with either SINV or SFV-4 at a multiplicity of infection (MOI) greater than 10, diluted in appropriate medium. At 1 hour post infection (hpi) medium was removed, cells were washed twice with phosphate-buffered saline (PBS), and fresh medium was added. At 24 hpi supernatants were harvested for virus titre by plaque assay.
(§5) For SINV and SFV4, confluent BSR cell monolayers were infected with 10-fold dilutions of samples. At 1 hpi cells were overlayed with low melting-point agarose in 2×MEM (+5% FCS). Cells were fixed at 72 hpi and stained with toluidine blue, allowing plaques to be counted.
(§6) TSG101 inhibitor Ilaprazole (Sigma-Aldrich) was diluted in 100% DMSO. […]

[3] = system: Herpes Simplex Virus-1 (HSV-1); experiment: Western blot of HSV-1 ICP0 and VP16 proteins in HaCaT cells; assay type: cell-based; conditions: 20 μM, MOI 10, 16 hrs
Procedure: as §1, §2
Cell lysate preparation and western blots were performed as described in Ren et al. (J Gen Virol. 2012 February; 93 (Pt 2): 319-329). […] Quantification was performed using LI-COR Image Studio Software.

[4] = system: Semliki Forest Virus 4 (SFV4); experiment: SFV4 titre by plaque assay (BHK-21 cells infected, titrated on BSR cells); assay type: cell-based; conditions: 2 μM, MOI >10, 24 hrs, initial tests
Procedure: as §3, §4, §5, §6

[5] = system: BKPyV; experiment: Western blot of BKPyV viral protein expression (LTAg, VP1) in RPTE/TERT1 cells; assay type: cell-based, BK polyomavirus
Procedure: (C)(i) Effect of PF-9366 on viral early and late gene and cellular MAT2A expression: Cells were infected with BKPyV (MOI 3) in media containing appropriate drug concentrations. At 1 hpi infectious media was removed, cells were washed and fresh media with appropriate drug concentrations was added. Cells were harvested at 48 hpi and a western blot performed. Membranes were blotted for viral late gene VP1, LTAg, cellular MAT2A/MAT1A, and tubulin as a loading control.
(iii) Viral gene expression is modulated in response to PF-9366: The density of BKPyV VP1 and LTAg expression were measured, normalized to tubulin loading control (LiCor Image Studio Software), n=3.
Cells were treated with MAT2A inhibitors at 1 hr post infection and were harvested at 48 hr post infection at MOI 1. (A) Total infectious BKPyV synthesis expressed as fold change to DMSO control (FFU titre assay). (B) Total viral protein expression (LTAg and VP1) was analysed by western blot. Tubulin was used as loading control. All error bars represent SEM. Two sample paired T-test was used to determine significance (*p<0.05; **p<0.01; ***p<0.001, ****p<0.0001), all numerical data shown were obtained over 2 independent experiments.
RPTE/hTERT cells were treated with inhibitors at 1 hr post infection (PI), infected at MOI 1. (A) Viral growth curves using FFU titre assay in drug treated and untreated cells infected with BKPyV at MOI 1 for 48 hr PI, 72 hr PI and 96 hr PI. (B) Total viral protein expression (LTAg and VP1) from drug treatments and untreated control was analysed by western blot with samples harvested at 48 hr PI and 96 hr PI. Tubulin was used as loading control. All error bars represent SEM. All numerical data shown were obtained over 2 independent experiments.
It has previously been noted by Quinlan et al. (Nat Chem Biol. 2017 13 (7): 785-792) that treatment with PF-9366 can increase MAT2A expression as a compensatory mechanism within cells. To investigate this, cells were once again treated with a range of PF-9366 for 3 hours prior to infection (or DMSO treated). Cells were infected with BKPyV (MOI 3), washed at 1 hpi, and fresh drug treated media was added. At 48 hpi cells were harvested and protein expression was analysed by western blotting (FIG. 3C(i)). MAT2A expression was quantified from band intensities, normalised to the tubulin loading control and plotted (FIG. 3C(ii), n=3). A clear increase in the cellular expression of MAT2A was observed, up to an 8-fold increase at 10 μM PF-9366. Western blot analysis was also conducted on early viral gene (LTAg) and late viral gene (VP1) expression (FIG. 3C(iii), n=3).
Cell lysate preparation and western blots were performed as described in Ren et al. (J Gen Virol. 2012 February; 93 (Pt 2): 319-329). Primary antibodies used were ab53977 (VP1), PAb416 (LTAg), sc-166452 (MAT2A/1A), ab110226 (VP16), sc-53070 (ICP0), anti-Zika E Protein, and either anti-GAPDH or anti-tubulin as a loading control, followed by IRDye 680LT-, or IRDye 800CW-conjugated secondary antibodies. Imaging was performed using the LI-COR Odyssey Infrared Imaging system. Quantification was performed using LI-COR Image Studio Software.

[6] = 125 nM to 1 μM, dose dependent, MOI 1, 48 hr post infection

| SMILES | reduction in HSV-1 viral titres [1] | reduction in viral titre (SINV) [2] | impact on viral protein expression (ICP0 and VP16) [3] | reduction in viral titre (SFV4) [4] | VP1 expression (western blot) ([5]; across the concentration range of PF-9366, BKPyV MOI 3, 48 hpi) | expression of LTAg (western blot) ([5]; two highest concentrations of PF-9366, BKPyV MOI 3, 48 hpi) | early viral protein (LTAg) levels (western blot) [5, 6] | late viral protein (VP1) levels (western blot) [5, 6] |
| --- | --- | --- | --- | --- | --- | --- | --- | --- |
| CN(C)CCc1nnc2cc(-c3ccccc3)c3cc(Cl)ccc3n12 [PF-9366] | greater than 100 fold | 7-10 fold | little impact | 7-10 fold | dose-dependent reduction | Reduced expression |  |  |
| COc1ccc(-c2c(Nc3ccccn3)[nH]c3c(C4=CCCCC4)c(-c4ccccc4)nn3c2=O)cc1 [AG-270] |  |  |  |  |  |  | reduced | reduced |
